This data set can be described thus: Moisture absorption rate under high humidity and moisture retention under low humidity. To be noted: 25° C.; for Moisture absorption rates under low humidity after different elapsed time (%): after 313 hours at high humidity. The format is physicochemical. The protocol:
The moisture absorption rate under high humidity and the moisture retention rate under low humidity were evaluated for the composition produced in Example 7 and urea as a contrast. Specifically, 1 g of dried sample was dried in a weighing bottle and weighed precisely, and left stand in a desiccator under relative humidity as high as 84% at 25° C. while measuring the sample weight with time until 313 hours has elapsed. Then, the same sample was transferred into a desiccator under relative humidity as low as 33% at 25° C., and left stand in the desiccator while measuring the sample weight with time in the same manner as above considering the point 313 hours has elapsed as a test starting point (0 hr). The moisture absorption rate was obtained in accordance with the following equation. Moisture absorption rate (%)=(Wt−W0/W0)×100 W0: dry weight before being left stand, Wt: weight at the time of each measuring

With `NC(N)=O` [Urea, urea], the deliquescent properties result (during the course of moisture absorption, relative humidity 84%) is recorded as “showed its deliquescent properties”. Moreover, the moisture retention entry (left stand under low humidity, relative humidity 33%) is “released almost all its moisture”. Moreover, the “Moisture absorption rates under low humidity after different elapsed time (%)” value is reported as 72.7% (relative humidity 33%, 0 Hr); 1.2% (relative humidity 33%, 25 Hr); 0.3% (relative humidity 33%, 49 Hr); 0.4% (relative humidity 33%, 75 Hr); 0.3% (relative humidity 33%, 141 Hr). For the same molecule, the “Moisture absorption rates under high humidity after different elapsed time (%)” value runs as follows: (relative humidity 84%, 5 Hr) 0.2%; (relative humidity 84%, 27 Hr) 3.2%; (relative humidity 84%, 48 Hr) 7.4%; (relative humidity 84%, 120 Hr) 24.7%; (relative humidity 84%, 197 Hr) 42.6%; (relative humidity 84%, 313 Hr) 72.7%.

For the origin of these results see patent US7488841B2, “Composition containing acyl group” (Asahi Kasei Chemicals Corporation, priority 2002, dated 2009).
